The text below walks through data of patent US9433663B2, “Mobilization of hematopoietic stem cells” (Children's Hospital Medical Center, priority 2008, dated 2016).

Data set [1] deals with leukemia initiating cells (LICs). Format: in vivo. From the text:
Like normal HSCs, their malignant counterpart, leukemia initiating cells (LICs) reside in their BM niches that provide the structural and physiological conditions supporting their survival and growth. LICs are resistant to traditional chemotherapy by interacting with their BM microenvironment, which are the culprits of leukemia relapses after a period of remission induced by chemotherapy. Detachment of LICs from their niche by CASIN would be a valuable supplementary therapy to the traditional cancer therapies (e.g., chemotherapies). First of all, in vitro effects of CASIN were examined in adhesion, migration, and F-actin polymerization of LICs, each of which is independently important for the retention of LICs in BM niches. Retroviral transduction of an MLL-AF9 fusion cDNA together with N-Ras oncogene into normal human CD34^+cord blood cells led to the establishment of cultures of N-Ras-MA93 cells that can initiate acute myeloid leukemia in NOG mice. […] To address it, a human AML model was set up by transplanting N-RasMA93 cells into NOG mice intravenously.
C57BL/6, NOD/SCID, NOD/SCID-SGM3 and NOD/SCIDγC−/− (NOG) were in house bred in the animal barrier facility of Cincinnati Children's Hospital Medical Center (CCHMC) and used at the age of 6-8 weeks old. Cultured N-RasMA93 cells were injected into NOD/SCIDγC−/− mice by tail vein. […]

Another data set addresses Cdc42 (Homo sapiens, UniProt P60953). Description: Rho GTPase effector pulldown in human CD34+ umbilical cord blood cells, Cdc42. Further details: endogenous in cells; host or cells: human CD34+ umbilical cord blood cells (HCB). The conditions noted are these: human CD34^+ HCBs. Type of data set: cell-based. How it is done:
To begin to study potential utility of CASIN in human hematopoietic stem cell mobilization, a series of cellular assays were carried out to determine the effects on human CD34^+ umbilical cord blood cells (HCBs). […] The effects of CASIN on human hematopoietic cell mobilization was therefore tested using a well established preclinical in vivo model (NOD/SCID-Hcb) of human hematopoietic function, where fresh CD34^+ hCB cells were transplanted into sub-lethally irradiated NOD/SCIDs by intrafemoral injection, and repopulated and maintained human hematopoietic reconstitution in the bone marrow of NOD/SCID recipient mice (FIG. 9b, FIG. 11) (Larochelle, A. et al. Nat Med 2, 1329-1337 (1996); Bhatia, M., et al. Proc Natl Acad Sci USA 94, 5320-5325 (1997)). Intravenous injections of CASIN were applied when human cells were well engrafted in the NOD/SCID recipients.
To analyze the effects of CASIN on the formation of active GTP-bound Cdc42, RhoA, and Rac1, effector pulldown assays were carried out as described previously. Cdc42GAP^−/− MEF, LDBM, CD34^+ hCB cells were treated with CASIN at doses of 5-20 μM in parallel with vehicle control for 2 hrs after overnight starvation, and stimulated with cytokines subsequently. […]

The target of a further data set is Rac (Homo sapiens, UniProt P63000). Description: nucleotide exchange: Tiam-induced exchange of mant-GDP with Rac. Format: biochemical. The text has this:
For example, even at 10 times the IC50 of Cdc42, a 50% inhibition of the association of mant-GDP with Rac or Rho was not achieved.

A further data set has as its system C57Bl/6 mice. In words: mobilization of colony-forming progenitors to peripheral blood, CFU-C assay. Type of data set: in vivo. To be noted: intraperitoneal 2.4 mg/Kg, 40 hrs post administration, in comparison to vehicle control. As for the experimental part: Whether CASIN administration can induce mobilization of HSC/Ps to peripheral blood of C57Bl/6 mice, mimicking the phenotype observed in Cdc42 conditional knockout mice, was evaluated. First of all, mobilization of hematopoietic progenitor cells was examined by CFU-C assays functionally (FIG. 3a). […] Secondarily, to further explore the ability of CASIN to mobilize LT-HSC which is crucial for long-term repopulation of the mobilized cells, serial transplantations were carried out, where 20 million PB from CASIN-mobilized C57Bl/6 mice was transplanted into primary recipient of NOD/SCID mice, and subsequent secondary and tertiary transplants were finished as well using prior BMs (FIG. 3c). Donor chimerisms were assessed by using H2K^b congenic marker which is positive for donors of C57Bl/6 strain and negative for recipients of NOD/SCID strain. […] Therefore, the studies show CASIN can efficiently mobilize colony-forming hematopoietic progenitors and LT-HSCs with self-renewal and multi-lineage differentiation capacity. Thirdly, to further investigate the potential of CASIN to vacate the BM niche after mobilization, six-color staining of the BM cells was performed from C57Bl/6 mice with or without CASIN treatment followed by FACS analysis. […] Therefore, a transient decrease in BM and a concomitant increase in peripheral organs of HSCs would be beneficial to facilitating the subsequent HSC transplantation.
To determinate the hematopoietic progenitor content in the PB of mobilized C57Bl/6 mice, colony-forming unit assay was performed as described previously. Briefly, 200 ul PB was plated in triplicate into methylcellulose (MethocultM3434; StemCell Technology, Vancouver, BC, Canada). Colonies were then counted 7 d later.

Another data set deals with LDBM cells. Description: proliferation (CFU) and toxicity in Cdc42+/+ and Cdc42−/− LDBM progenitors. Type of data set: cell-based, murine. From the text: To shed light on potential roles of CASIN in HSPC mobilization, the effects of CASIN on Cdc42-related cellular functions was studied, including adhesion, migration, and F-actin polymerization of progenitor cells in 32D myeloid progenitors. […] SDF-1α stimulation causes a reorganization of F-actin into a cortical ring around the cells. […] Thirdly, to gain further insight into cellular specificity and efficacy of CASIN, and also to rule out possible toxic effects by CASIN, Cdc42-involved BM progenitor cell functions were examined, including proliferation, adhesion, migration, and F-actin polymerization, in Cdc42^+/+ cells in parallel with Cdc42^−/− cells. In line with additional studies in a Cdc42 conditional knockout mouse model as described herein, Cdc42^−/− LDBM cells have increased CFU-forming progenitors compared to those of Cdc42^+/+.

Each structure is given as a SMILES string.

Sequence of Cdc42 (P60953 whole entry): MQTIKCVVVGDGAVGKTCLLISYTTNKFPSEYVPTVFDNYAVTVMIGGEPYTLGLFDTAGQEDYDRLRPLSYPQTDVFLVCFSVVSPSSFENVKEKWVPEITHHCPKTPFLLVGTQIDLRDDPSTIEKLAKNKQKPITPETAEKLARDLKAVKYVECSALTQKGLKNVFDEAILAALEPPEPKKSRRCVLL

Regarding `OCCNC1CCCc2c1[nH]c1ccc(-c3ccccc3)cc21` (stereo not shown) [CASIN], the “apoptosis or cell death of leukemia cells in vivo” value in data set [1] (in vivo) was “did not elicit significant apoptosis or cell death”. In data set [1] (intravenous, by 20 min post injection), the “mobilization of LICs to the peripheral blood” value is recorded as “efficiently mobilized the LICs to the peripheral blood transiently”. The Cdc42 activity result at Cdc42 is “specifically inhibit”. The “Tiam induced nucleotide exchange of mant-GDP with Rac” value at Rac (FIG. 6) is reported as “did not affect”. Moreover, the “inhibition of the association of mant-GDP with Rac” value against Rac (at 10 times the IC50 of Cdc42) is < 50%. Besides, the “mobilization of colony-forming progenitors to the peripheral blood” value in the data set on C57Bl/6 mice is on record as “more than six-fold”. Further, in the data set on LDBM cells (Cdc42^+/+ LDBM cells, FIG. 2d), the “proliferation of WT progenitors” value is “did not affect”. In addition, the “side effect on the KO cells” value in the data set with LDBM cells (Cdc42^−/− LDBM cells, FIG. 2d) was “nor showed any side effect”. In addition, the “myeloproliferative disorders (MPDs) or hyperactivation” value in the data set with LDBM cells (as compared with the Cdc42 conditional knockout mouse) was “did not cause”. Moreover, in the data set on LDBM cells (dose range of 5-10 μM), the “toxic effect in WT or Cdc42 deficient HSPCs” value was “without a detectable toxic effect”.
